Holding throughout (conditions): stereoisomer not certain
Data set [1] can be described thus: RP, Waters CORTECS T3, 100 × 2.1 mm, 2.7 µm, 0.3 mL/min, estimated dead time 0.73 min; A: water + 0.1% formic acid, pH 3; B: methanol + 0.1% formic acid, pH 3; gradient (min/%B) 0/5 5/5 25/100 30/100 30.1/5 35/5.
Data set [2] in a line: RP, Waters CORTECS T3, 100 × 2.1 mm, 2.7 µm, 0.3 mL/min, estimated dead time 0.73 min; A: water + 0.1% formic acid, pH 3; B: methanol + 0.1% formic acid, pH 3; gradient (min/%B) 0/0 5/0 25/100 30/100 30.1/0 35/0.
The nature of data set [3]: RP, Waters CORTECS T3, 100 × 2.1 mm, 2.7 µm, 0.2 mL/min, estimated dead time 1.1 min; A: water + 0.1% formic acid, pH 3; B: methanol + 0.1% formic acid, pH 3; gradient (min/%B) 0/0 1/0 6/5 30/100 35/100 35.1/0 40/0.
A short description of data set [4]: RP, Waters CORTECS T3, 100 × 2.1 mm, 2.7 µm, 0.1 mL/min, estimated dead time 2.2 min; A: water + 0.1% formic acid, pH 3; B: methanol + 0.1% formic acid, pH 3; gradient (min/%B) 0/0 1/0 6/5 30/100 35/100 35.1/0 40/0.
A short description of data set [5]: RP, Waters CORTECS T3, 100 × 2.1 mm, 2.7 µm, 0.15 mL/min, estimated dead time 1.5 min; A: water + 0.1% formic acid, pH 3; B: methanol + 0.1% formic acid, pH 3; gradient (min/%B) 0/0 1/0 6/5 30/100 35/100 35.1/0 40/0.
Data set [6] is described as follows: RP, Waters CORTECS T3, 100 × 2.1 mm, 2.7 µm, 0.3 mL/min, estimated dead time 0.73 min; A: water + 0.1% formic acid, pH 3; B: methanol + 0.1% formic acid, pH 3; gradient (min/%B) 0/0 1/0 6/5 30/100 35/100 35.1/0 40/0.
A short description of data set [7]: RP, Waters CORTECS T3, 100 × 2.1 mm, 2.7 µm, 0.25 mL/min, estimated dead time 0.88 min; A: water + 0.1% formic acid, pH 3; B: methanol + 0.1% formic acid, pH 3; gradient (min/%B) 0/0 1/0 6/5 30/100 35/100 35.1/0 40/0.
Data set [8] can be described thus: RP, Waters CORTECS T3, 100 × 2.1 mm, 2.7 µm, 0.1 mL/min, estimated dead time 2.2 min; A: water + 0.1% formic acid, pH 3; B: methanol + 0.1% formic acid, pH 3; gradient (min/%B) 0/5 5/5 25/95 25.1/100 35/100 35.1/5 45/5.
Data set [9] can be described thus: RP, Thermo Scientific Hypercarb, 150 × 2.1 mm, 5 µm, 0.1 mL/min, estimated dead time 3.3 min; A: water + 0.1% formic acid, pH 3; B: methanol + 0.1% formic acid, pH 3; gradient (min/%B) 0/5 5/5 20/100 35/100 35.1/5 45/5.
Data set [10] is described as follows: RP, Waters CORTECS T3, 100 × 2.1 mm, 2.7 µm, 0.3 mL/min, estimated dead time 0.73 min; A: water + 0.1% formic acid, pH 3; B: methanol + 0.1% formic acid, pH 3; gradient (min/%B) 0/5 5/5 25/95 25.1/100 35/100 35.1/5 45/5.
A short description of data set [11]: RP, Waters ACQUITY UPLC BEH C18, 100 × 2.1 mm, 1.7 µm, 0.1 mL/min, estimated dead time 2.2 min; A: water + 0.1% formic acid, pH 3; B: methanol + 0.1% formic acid, pH 3; gradient (min/%B) 0/5 5/5 25/100 30/100 30.1/5 35/5.
Data set [12] is described as follows: RP, Waters CORTECS T3, 100 × 2.1 mm, 2.7 µm, 0.2 mL/min, estimated dead time 1.1 min; A: water + 0.045% formic acid + 0.11% ammonium hydroxide, pH 7; B: methanol; gradient (min/%B) 0/5 5/5 25/95 25.1/100 35/100 35.1/5 45/5.
Data set [13] in a line: RP, Waters ACQUITY UPLC BEH C18, 100 × 2.1 mm, 1.7 µm, 0.2 mL/min, estimated dead time 1.1 min; A: water + 0.025% formic acid + 20 mM ammonium acetate + 0.055% ammonium hydroxide, pH 7; B: methanol; gradient (min/%B) 0/5 5/5 25/100 30/100 30.1/5 35/5.
Data set [14] can be described thus: HILIC, Merck SeQuant ZIC-HILIC, 150 × 2.1 mm, 5 µm, 0.75 mL/min, estimated dead time 0.44 min; A: water + 0.1% acetic acid + 10 mM ammonium acetate, pH 4; B: 5% water + 95% acetonitrile + 0.1% acetic acid + 10 mM ammonium acetate, pH 4; gradient (min/%B) 0/95 5/95 20/57 25/57 30/95 40/95.
The nature of data set [15]: HILIC, Waters XBridge BEH Amide, 100 × 2.1 mm, 2.5 µm, 0.5 mL/min, estimated dead time 0.44 min; A: water + 0.1% acetic acid + 10 mM ammonium acetate, pH 4; B: 5% water + 95% acetonitrile + 0.1% acetic acid + 10 mM ammonium acetate, pH 4; gradient (min/%B) 0/95 5/95 20/57 25/57 30/95 40/95.
The nature of data set [16]: RP, Waters ACQUITY UPLC BEH C18, 100 × 2.1 mm, 1.7 µm, 0.1 mL/min, estimated dead time 2.2 min; A: water + 0.045% formic acid + 0.11% ammonium hydroxide, pH 7; B: methanol; gradient (min/%B) 0/5 5/5 25/95 25.1/100 35/100 35.1/5 45/5.
Data set [17] is described as follows: RP, Waters CORTECS T3, 100 × 2.1 mm, 2.7 µm, 0.3 mL/min, estimated dead time 0.73 min; A: water + 0.1% formic acid, pH 3; B: methanol + 0.1% formic acid, pH 3; gradient (min/%B) 0/0 1/0 6/5 30/100 35/100 35.1/0 40/0. This is another data set of the same source.
Data set [18] in a line: RP, Waters CORTECS T3, 100 × 2.1 mm, 2.7 µm, 0.2 mL/min, estimated dead time 1.1 min; A: water + 0.1% formic acid, pH 3; B: methanol + 0.1% formic acid, pH 3; gradient (min/%B) 0/5 5/5 25/95 25.1/100 35/100 35.1/5 45/5.

`Nc1cccc2ccccc12` [1-NAPHTHYLAMINE]: the LC retention time in data set [1] is 10.2 min; in data set [2], 11.5 min; in data set [3], 13.5 min; in [4], 12.1 min; in [5], 15.2 min; in data set [6] it was 11.8 min. Moreover, the LC retention time is 12.6 min in data set [7]; 16.1 min in [8]; 30.6 min in [9]; 10.3 min in data set [10]; 16.5 min in [11]; 14.5 min in data set [12]. Moreover, the LC retention time in data set [13] is 14.7 min.

With `O=c1[nH]c(=O)c2nccnc2[nH]1` [2,4-DIHYDROXYPTERIDINE], the values for the LC retention time in data set [11], in data set [14] and in [15] were 5.19 min, 1.46 min and 1.7 min, respectively.

As for `CC(=O)OCC(=O)C1(O)CCC2C3CCC4=CC(=O)CCC4(C)C3C(O)CC21C` (stereo not drawn) [CORTISOL 21-ACETATE], the LC retention time in data set [1] is 18.1 min; in [2], 18.6 min; in [3], 22.4 min; in data set [4], 19.9 min; in data set [5], 23.6 min; in data set [6], 21.1 min. Moreover, the LC retention time in [7] is 21.6 min; in [8], 22.9 min; in data set [10], 18.6 min; in data set [11], 22.3 min; in data set [12], 19.9 min; in data set [16], 22.9 min. Also, the LC retention time in data set [13] is 19.4 min.

For the molecule `CCOC(=O)Cc1c[nH]c2ccccc12` [ETHYL 3-INDOLEACETATE], the LC retention time was 16.9 min in data set [1]; 17.5 min in [2]; 21.1 min in data set [3]; 18.8 min in data set [4]; 22.4 min in data set [5]; 19.6 min in data set [6]. Moreover, the LC retention time in data set [8] is 22.1 min; in data set [10], 17.4 min; in data set [12] it was 18.9 min; in data set [16], 22.5 min.

For the molecule `Cc1cc2nc3c(=O)[nH]c(=O)nc-3n(CC(O)C(O)C(O)COP(=O)(O)OP(=O)(O)OCC3OC(n4cnc5c(N)ncnc54)C(O)C3O)c2cc1C` (stereo not drawn) [FLAVIN ADENINE DINUCLEOTIDE], the LC retention time in [17] was 12.1 min.

Take `O=CCc1c[nH]c2ccccc12` [INDOLE-3-ACETALDEHYDE]: the LC retention time in data set [1] is 9.2 min; in [3], 12.1 min; in data set [4], 10.6 min; in data set [5] it was 13.3 min; in data set [6] it was 10.8 min; in [7], 11.3 min. Moreover, the LC retention time is 13.8 min in data set [8]; 9.27 min in data set [10]; 13.6 min in data set [11]; 10.7 min in data set [12]; 13.7 min in data set [16]; 10.6 min in [13].

For `NC(=O)CC[C@H](N)C(=O)O` [L-GLUTAMINE], the LC retention time was 2.48 min in data set [18], 4.84 min in data set [9], 12.9 min in [14] and 13 min in data set [15].

As for `N[C@H](CO)Cc1cnc[nH]1` [L-HISTIDINOL], the LC retention time in data set [9] is 4.68 min; in data set [12] it was 1.54 min; in data set [16], 3.33 min; in [13] it was 1.79 min; in [15], 11.4 min.

In the case of `NC(=O)[C@@H](N)Cc1c[nH]c2ccccc12` [L-TRYPTOPHANAMIDE], the LC retention time in data set [1] is 4.89 min; in data set [2] it was 8.34 min; in [3] it was 9.28 min; in data set [4], 7.08 min; in [5], 10.8 min; in data set [6], 7.63 min. In addition, the LC retention time in data set [7] was 8.41 min; in [8], 11.1 min; in [11], 11.2 min; in data set [12], 9.97 min; in data set [16], 14.1 min; in [13], 10.1 min.

Consider `COC1OC(CO)C(O)C(O)C1O` [METHYL BETA-D-GALACTOSIDE], for which the LC retention time in [14] is 5.01 min; in data set [15], 4.84 min.

Turning to `COC(=O)Cc1c[nH]c2ccccc12` [METHYL INDOLE-3-ACETATE], the LC retention time in [1] is 15.3 min; in data set [2], 16 min; in data set [3] it was 19.3 min; in data set [4] it was 17.2 min; in data set [5] it was 20.6 min; in data set [6], 17.6 min. Moreover, the LC retention time in data set [8] was 20.5 min; in data set [10], 15.7 min; in data set [11], 20.5 min; in [12], 17.2 min; in data set [16] it was 20.9 min.

As for `NC(N)=N[C@@H](CC(=O)O)C(=O)O` [N-AMIDINO-L-ASPARTATE], the LC retention time in data set [2] is 0.89 min; in data set [5], 1.78 min; in data set [9] it was 12.7 min; in [15], 14.5 min.

Regarding `CNCCc1c[nH]c2ccccc12` [N-METHYLTRYPTAMINE], the LC retention time is 8.14 min in data set [1]; 9.75 min in data set [2]; 11.2 min in [3]; 9.68 min in data set [4]; 12.5 min in data set [5]; 9.8 min in data set [6]. Moreover, the LC retention time was 10.4 min in [7]; 13.1 min in data set [8]; 8.19 min in [10]; 13.3 min in data set [11]; 10.7 min in data set [12]; 14.4 min in [16]. Besides, the LC retention time in data set [13] was 11.1 min.

The record behind these values is the RepoRT retention time repository (doi:10.1016/j.jchromb.2020.122105).
